Source: patent US11708367B2, “Compounds for the treatment of kinase-dependent disorders” (Exelixis, Inc., priority 2018, dated 2023)

Experiments:
Human Axl = Human Axl (Homo sapiens (Human), UniProt P30530, Q764R); test: Human AXL kinase assay (33P radiometric, KinaseProfiler); type: biochemical; conditions: 10 μM ATP
Method: (§1) Kinase activity and compound inhibition were investigated using the ^33P-Phosphoryl transfer radiometric kinase assay, performed using the KinaseProfiler™ service of Eurofins Pharma Discovery Services UK Limited. Dose-response experiments were performed using nine compound concentrations in a 96-well microtiter plate. For each assay, all compounds were prepared to a 50× final assay concentration (50 μM) in 100% DMSO, then diluted in a half-log series, with the final top concentration at 1 μM. This working stock of the compound was added to the assay well as the first component in the reaction, followed by the remaining components as detailed in the following assay protocols below. The positive control wells (100% kinase activity) contain all components of the reaction including 2% DMSO (control for solvent effects), except the compound of interest. Blank wells contain all components of the reaction, with the reference inhibitor, staurosporine. This reference compound was used to abolish kinase activity and generated the 0% kinase activity base-line. IC50 values were calculated by nonlinear regression analysis using the sigmoidal dose-response (variable slope) curve fit on XLFit version 5.3 (ID Business Solutions).
Human Axl (residues H473-A894 with Q764R, 161 nM) was incubated with 8 mM MOPS pH 7.0, 0.2 mM EDTA, 250 μM KKSRGDYMTMQIG (SEQ ID NO. 43), 10 mM magnesium acetate and 10 μM [γ-33P-ATP]. The reaction was initiated by the addition of the Mg/ATP mix. After incubation for 40 minutes at room temperature, the reaction was stopped by the addition of phosphoric acid to a concentration of 0.5%. A reaction aliquot of 10 μL was then spotted onto a P30 filtermat and washed four times for 4 minutes in 0.425% phosphoric acid and once in methanol prior to drying and scintillation counting. Incorporated ^33P was measured using the Wallac Microbeta scintillation counter (Perkin Elmer).

Mer = Mer (Homo sapiens (Human), UniProt Q12866); test: Human Mer kinase assay (33P radiometric, KinaseProfiler); type: biochemical; conditions: 10 μM ATP
Method: as §1
Human Mer (residues R557-E882 with H628Q and R794A, 0.7 nM) was incubated with 8 mM MOPS pH 7.0, 0.2 mM EDTA, 30 mM NaCl, 250 μM GGMEDIYFEFMGGKKK (SEQ ID NO. 44), 10 mM magnesium acetate, and 10 μM [γ-33P-ATP]. The reaction was initiated by the addition of the Mg/ATP mix. After incubation for 40 minutes at room temperature, the reaction was stopped by the addition of phosphoric acid to a concentration of 0.5%. A reaction aliquot of 10 μL was then spotted onto a P30 filtermat and washed four times for 4 minutes in 0.425% phosphoric acid and once in methanol prior to drying and scintillation counting. Incorporated 33P was measured using the Wallac Microbeta scintillation counter (Perkin Elmer).

Met [1] = biological target: T1, Met (Homo sapiens (Human), UniProt P08581); test: Human Met kinase assay (33P radiometric, KinaseProfiler); type: biochemical; conditions: 10 μM ATP, read-out: c-Met IC50
Method: as §1
Human Met (residues R974-S1390 with A1209G and V1290L, 3.4 nM) was incubated with 8 mM MOPS pH 7.0, 0.2 mM EDTA, 250 µM KKKGQEEEYVFIE (SEQ ID NO. 45), 1 mM sodium orthovanadate, 5 mM […], 10 mM magnesium acetate, and 10 μM [γ-33P-ATP]. The reaction was initiated by the addition of the Mg/ATP mix. After incubation for 40 minutes at room temperature, the reaction was stopped by the addition of phosphoric acid to a concentration of 0.5%. A reaction aliquot of 10 μL was then spotted onto a P30 filtermat and washed four times for 4 minutes in 0.425% phosphoric acid and once in methanol prior to drying and scintillation counting. Incorporated 33P was measured using the Wallac Microbeta scintillation counter (Perkin Elmer).

AXL = AXL (Homo sapiens (Human), UniProt P30530); test: AXL autophosphorylation ELISA in A-172 cells; type: cell-based; conditions: cellular, Gas6-stimulated, phospho-AXL ELISA
Method: A-172 glioblastoma cells (ATCC #CRL-1620) were seeded at 2.5×10^5 cells/well onto 24-well plates (Greiner #662165), in DMEM (Thermo Fisher #11995-040) containing 10% FBS (Thermo Fisher #26140-079), 1% MEM NEAA (Thermo Fisher #11140-050), 1% GlutaMax (Thermo Fisher #35050-061), and 1% Penicillin Streptomycin (Thermo Fisher #15140-122). A-172 cells were incubated at 37° C., 5% CO2 for 24 h and then starved for 24 h in serum-free medium. Test compounds were serially diluted to produce an 8-point dose curve in fresh serum-free medium to a final concentration of 0.3% DMSO (vehicle) and added to the cells and incubated for 1 h. Cells were then stimulated with 1 μg/mL recombinant human Gas6 (R&D Systems #885-GSB-500) for 15 min, washed with cold PBS, and immediately lysed with 150 μL of cold IX lysis buffer [20 mM Tris, 137 mM sodium chloride, 2 mM EDTA, 10% glycerol, 1% NP-40 alternative, 1 mM activated sodium orthovanadate, 1 mM PefaBloc SC (Sigma-Aldrich #11429868001), protease/phosphatase inhibitor tablet (Thermo Fisher #A32959)]. Lysates were collected and 100 μL/well added into the human phospho-AXL Duo Set IC ELISA (R&D Systems #DYC2228-2). Assay was performed according to manufacturer's instructions and sample phospho-AXL concentrations were extrapolated using human phospho-AXL control (R&D Systems #841645) as a standard. Positive control wells (100% activity) contained Gas6-stimulated, DMSO-treated cell lysates. Negative control wells (0% activity) contained Gas6-stimulated, reference inhibitor-treated cell lysates. IC50 values were calculated by nonlinear regression analysis using a 4-parameter logistic curve fit in ActivityBase XL (IDBS).

Met [2] = biological target: T1, Met; test: Met autophosphorylation ELISA in PC-3 cells; type: cell-based; conditions: cellular, HGF-stimulated, phospho-Met ELISA, read-out: c-Met IC50
Method: PC-3 prostate cancer cells (ATCC #CRL-1435) were seeded at 4×10^4 cells/well onto 24-well plates (Greiner #662165), in DMEM (Thermo Fisher #11995-040) containing 10% FBS (Thermo Fisher #26140-079), 1% MEM NEAA (Thermo Fisher #11140-050), 1% GlutaMax (Thermo Fisher #35050-061), and 1% Penicillin Streptomycin (Thermo Fisher #15140-122). PC-3 cells were incubated at 37° C., 5% CO2 for 24 h and then starved for 3 h in serum-free medium. Test compounds were serially diluted to produce an 8-point dose curve in fresh serum-free medium to a final concentration of 0.3% DMSO (vehicle) and added to the cells and incubated for 1 h. Cells were then stimulated with 100 ng/mL recombinant human HGF (R&D Systems #294-HG-250) for 10 min, washed with cold PBS, and immediately lysed with 130 μL of cold IX lysis buffer [20 mM Tris, 137 mM sodium chloride, 2 mM EDTA, 10% glycerol, 1% NP-40 alternative, 1 mM activated sodium orthovanadate, 1 mM PefaBloc SC (Sigma-Aldrich #11429868001), protease/phosphatase inhibitor tablet (Thermo Fisher #A32959)]. Lysates were clarified by centrifugation and 100 μL/well added into the PathScan phospho-Met (panTyr) Sandwich ELISA (Cell Signaling Technology #7333). Assay was performed according to manufacturer's instructions. Positive control wells (100% activity) contained HGF-stimulated, DMSO-treated cell lysates. Negative control wells (0% activity) contained HGF-stimulated, reference inhibitor-treated cell lysates. IC50 values were calculated by nonlinear regression analysis using a 4-parameter logistic curve fit in ActivityBase XL (IDBS).
Target sequence in this assay (P08581 25-1390): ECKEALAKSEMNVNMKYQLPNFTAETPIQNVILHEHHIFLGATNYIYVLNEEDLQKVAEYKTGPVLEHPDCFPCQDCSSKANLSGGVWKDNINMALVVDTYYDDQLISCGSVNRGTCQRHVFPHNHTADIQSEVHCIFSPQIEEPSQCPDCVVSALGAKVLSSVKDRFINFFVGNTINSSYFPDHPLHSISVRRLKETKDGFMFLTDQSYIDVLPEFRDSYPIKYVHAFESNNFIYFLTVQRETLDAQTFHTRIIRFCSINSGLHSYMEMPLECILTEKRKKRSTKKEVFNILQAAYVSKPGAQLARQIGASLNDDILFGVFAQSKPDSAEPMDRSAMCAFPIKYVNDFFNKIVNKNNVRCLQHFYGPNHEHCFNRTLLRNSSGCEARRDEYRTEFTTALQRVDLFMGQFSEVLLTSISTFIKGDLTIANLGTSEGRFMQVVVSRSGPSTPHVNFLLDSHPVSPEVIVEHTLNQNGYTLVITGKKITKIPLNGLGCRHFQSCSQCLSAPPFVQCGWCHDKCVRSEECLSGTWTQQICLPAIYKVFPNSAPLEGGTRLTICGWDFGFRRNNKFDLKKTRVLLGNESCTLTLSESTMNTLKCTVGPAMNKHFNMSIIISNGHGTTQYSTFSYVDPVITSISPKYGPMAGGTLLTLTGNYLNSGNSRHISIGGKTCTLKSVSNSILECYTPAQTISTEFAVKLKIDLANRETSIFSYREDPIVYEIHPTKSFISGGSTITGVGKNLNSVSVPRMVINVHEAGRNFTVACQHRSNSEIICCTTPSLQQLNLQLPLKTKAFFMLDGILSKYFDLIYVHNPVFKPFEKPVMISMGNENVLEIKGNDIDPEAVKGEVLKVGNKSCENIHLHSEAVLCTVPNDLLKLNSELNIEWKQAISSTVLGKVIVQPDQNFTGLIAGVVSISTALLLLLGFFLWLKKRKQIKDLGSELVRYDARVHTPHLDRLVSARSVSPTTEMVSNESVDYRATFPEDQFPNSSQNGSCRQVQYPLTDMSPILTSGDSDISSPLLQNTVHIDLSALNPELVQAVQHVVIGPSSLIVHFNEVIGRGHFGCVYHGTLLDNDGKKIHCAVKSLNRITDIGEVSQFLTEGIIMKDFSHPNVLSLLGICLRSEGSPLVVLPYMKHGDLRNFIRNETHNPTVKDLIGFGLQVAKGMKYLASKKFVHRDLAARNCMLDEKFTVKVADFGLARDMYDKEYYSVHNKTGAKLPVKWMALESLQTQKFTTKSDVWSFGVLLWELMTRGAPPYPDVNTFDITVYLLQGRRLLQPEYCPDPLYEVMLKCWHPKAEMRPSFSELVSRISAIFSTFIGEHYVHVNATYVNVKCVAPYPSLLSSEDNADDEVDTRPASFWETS

KDR = KDR (Homo sapiens (Human), UniProt P35968); test: KDR autophosphorylation ELISA in HUVEC cells; type: cell-based; conditions: cellular, VEGF165-stimulated, phospho-KDR ELISA
Method: Human umbilical vein endothelial cells or HUVEC (Lonza #C2519A) were seeded at 2×10^4 cells/well onto 96-well plates (Corning #3904), in EGM-2 growth medium (Lonza #CC-3162) containing 1% Penicillin Streptomycin (Thermo Fisher #15140-122). HUVEC cells were incubated at 37° C., 5% CO2 for 24 h and then starved for 24 h in serum-free EBM-2 basal medium (Lonza #CC-3156) containing 1% Penicillin Streptomycin. Test compounds were serially diluted to produce an 8-point dose curve in fresh serum-free medium to a final concentration of 0.3% DMSO (vehicle) and added to the cells and incubated for 1 h. Cells were then stimulated with 100 ng/mL recombinant human VEGF165 (R&D Systems #293-VE-500) for 5 min, washed with cold PBS, and immediately lysed with 130 μL of cold 1× lysis buffer [20 mM Tris, 137 mM sodium chloride, 2 mM EDTA, 10% glycerol, 1% NP-40 alternative, 1 mM activated sodium orthovanadate, 1 mM PefaBloc SC (Sigma-Aldrich #11429868001), protease/phosphatase inhibitor tablet (Thermo Fisher #A32959)]. Lysates were collected and 100 μL/well added into the human phospho-KDR Duo Set IC ELISA (R&D Systems #DYC 1766-2). Assay was performed according to manufacturer's instructions and sample phospho-KDR concentrations were extrapolated using human phospho-KDR control (R&D Systems #841421) as a standard. Positive control wells (100% activity) contained VEGF165-stimulated, DMSO-treated cell lysates. Negative control wells (0% activity) contained non-stimulated cell lysates. IC50 values were calculated by nonlinear regression analysis using a 4-parameter logistic curve fit in ActivityBase XE (IDBS).

KDR, sequence (P35968 20-1356): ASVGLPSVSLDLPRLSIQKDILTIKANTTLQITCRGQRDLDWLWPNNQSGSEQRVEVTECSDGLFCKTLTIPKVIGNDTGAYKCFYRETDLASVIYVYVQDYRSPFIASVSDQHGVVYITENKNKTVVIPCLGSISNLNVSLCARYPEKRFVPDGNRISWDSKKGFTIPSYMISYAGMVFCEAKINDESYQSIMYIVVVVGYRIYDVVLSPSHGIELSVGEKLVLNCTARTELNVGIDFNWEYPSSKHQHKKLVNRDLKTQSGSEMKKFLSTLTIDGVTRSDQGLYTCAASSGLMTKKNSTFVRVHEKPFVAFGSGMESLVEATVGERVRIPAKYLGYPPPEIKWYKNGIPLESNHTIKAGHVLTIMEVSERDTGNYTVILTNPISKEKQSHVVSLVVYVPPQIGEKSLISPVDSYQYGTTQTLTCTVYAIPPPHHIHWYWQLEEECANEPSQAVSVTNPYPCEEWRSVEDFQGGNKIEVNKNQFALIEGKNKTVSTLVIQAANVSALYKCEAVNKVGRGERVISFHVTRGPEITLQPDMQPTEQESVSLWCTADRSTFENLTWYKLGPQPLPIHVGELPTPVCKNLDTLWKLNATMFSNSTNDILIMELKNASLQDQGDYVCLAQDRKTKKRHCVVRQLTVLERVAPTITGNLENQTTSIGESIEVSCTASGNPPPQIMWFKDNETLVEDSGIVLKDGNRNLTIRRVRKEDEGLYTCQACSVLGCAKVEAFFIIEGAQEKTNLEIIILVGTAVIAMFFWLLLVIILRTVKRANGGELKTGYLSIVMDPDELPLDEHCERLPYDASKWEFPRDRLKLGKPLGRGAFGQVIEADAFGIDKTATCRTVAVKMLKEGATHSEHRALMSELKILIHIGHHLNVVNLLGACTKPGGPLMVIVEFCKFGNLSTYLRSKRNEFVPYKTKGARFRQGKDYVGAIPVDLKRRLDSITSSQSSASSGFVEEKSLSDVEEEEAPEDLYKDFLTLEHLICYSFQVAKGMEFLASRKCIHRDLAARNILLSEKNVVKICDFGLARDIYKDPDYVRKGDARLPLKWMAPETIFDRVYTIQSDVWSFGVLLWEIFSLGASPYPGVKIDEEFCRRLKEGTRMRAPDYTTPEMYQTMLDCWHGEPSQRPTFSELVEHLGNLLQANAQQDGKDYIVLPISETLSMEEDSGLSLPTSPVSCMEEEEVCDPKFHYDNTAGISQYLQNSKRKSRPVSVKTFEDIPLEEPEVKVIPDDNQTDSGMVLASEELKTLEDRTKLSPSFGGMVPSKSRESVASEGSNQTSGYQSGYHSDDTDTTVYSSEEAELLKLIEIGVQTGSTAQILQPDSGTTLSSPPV
AXL, sequence (P30530 26-894): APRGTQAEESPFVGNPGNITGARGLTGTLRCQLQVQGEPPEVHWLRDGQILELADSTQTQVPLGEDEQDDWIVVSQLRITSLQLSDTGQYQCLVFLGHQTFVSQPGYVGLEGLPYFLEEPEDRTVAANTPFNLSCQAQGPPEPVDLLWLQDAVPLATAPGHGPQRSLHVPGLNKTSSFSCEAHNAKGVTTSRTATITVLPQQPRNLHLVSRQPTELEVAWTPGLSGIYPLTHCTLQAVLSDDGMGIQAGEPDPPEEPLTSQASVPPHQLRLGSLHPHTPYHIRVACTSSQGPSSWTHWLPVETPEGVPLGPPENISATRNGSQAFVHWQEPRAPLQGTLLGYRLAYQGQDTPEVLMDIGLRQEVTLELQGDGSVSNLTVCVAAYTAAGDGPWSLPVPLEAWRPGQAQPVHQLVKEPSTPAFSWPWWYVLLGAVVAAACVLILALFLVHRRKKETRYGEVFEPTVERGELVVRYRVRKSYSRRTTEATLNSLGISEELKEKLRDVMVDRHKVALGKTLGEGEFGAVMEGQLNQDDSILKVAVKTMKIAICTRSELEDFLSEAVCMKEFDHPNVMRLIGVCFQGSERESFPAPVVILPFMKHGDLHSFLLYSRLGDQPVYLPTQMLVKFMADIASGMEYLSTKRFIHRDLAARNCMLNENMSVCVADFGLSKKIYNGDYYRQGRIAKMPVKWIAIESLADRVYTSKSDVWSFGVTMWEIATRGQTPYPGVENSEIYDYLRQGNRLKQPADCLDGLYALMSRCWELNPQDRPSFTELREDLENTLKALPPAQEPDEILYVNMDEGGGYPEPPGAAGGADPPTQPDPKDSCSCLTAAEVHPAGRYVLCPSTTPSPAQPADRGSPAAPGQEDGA
Mer, sequence (Q12866 557-882): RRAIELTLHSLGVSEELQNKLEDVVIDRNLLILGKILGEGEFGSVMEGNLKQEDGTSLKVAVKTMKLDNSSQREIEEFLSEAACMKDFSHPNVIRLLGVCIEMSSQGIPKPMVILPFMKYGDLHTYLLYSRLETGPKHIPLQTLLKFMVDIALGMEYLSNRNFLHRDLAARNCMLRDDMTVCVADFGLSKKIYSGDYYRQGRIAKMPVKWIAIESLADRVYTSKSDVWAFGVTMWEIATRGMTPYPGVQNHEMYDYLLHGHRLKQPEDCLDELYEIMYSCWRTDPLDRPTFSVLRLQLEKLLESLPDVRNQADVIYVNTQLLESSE
Human Axl, sequence (P30530 473-894 Q764R): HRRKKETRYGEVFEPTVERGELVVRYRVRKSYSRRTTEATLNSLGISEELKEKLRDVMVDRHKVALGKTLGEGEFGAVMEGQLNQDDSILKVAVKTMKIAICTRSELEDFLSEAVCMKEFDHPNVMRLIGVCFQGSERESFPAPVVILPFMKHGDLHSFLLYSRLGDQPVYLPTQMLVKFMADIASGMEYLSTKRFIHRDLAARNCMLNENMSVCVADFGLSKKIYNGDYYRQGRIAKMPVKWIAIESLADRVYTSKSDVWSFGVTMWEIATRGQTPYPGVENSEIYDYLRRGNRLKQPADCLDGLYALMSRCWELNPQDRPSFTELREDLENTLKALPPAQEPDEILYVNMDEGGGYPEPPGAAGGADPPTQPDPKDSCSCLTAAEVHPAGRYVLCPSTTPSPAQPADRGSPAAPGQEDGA

SMILES	IC50 (Human Axl)	IC50 (Mer)	IC50 (Met [1])	IC50 (AXL)	IC50 (Met [2])	IC50 (KDR)
O=C(Nc1ccc(F)cc1)C1(C(=O)Nc2ccc(Oc3ncnc4cc5c(nc34)CCCC5)cc2)CC1 [Compound 52, 1-N′-(4-fluorophenyl)-1-N-[4-(6,7,8,9-tetrahydro-pyrimido[5,4-b]quinolin-4-yloxy)phenyl]cyclo-propane-1,1-dicarboxamide]	100 to 1000 nM	100 to 1000 nM	100 to 1000 nM			
COc1cc2ncnc(Oc3ccc(NC(=O)C4(C(=O)Nc5ccc(F)cc5)CC4)cc3)c2nc1C#N [Compound 57, 1-N-[4-(6-cyano-7-methoxypyrido[3,2-d]pyrimidin-4-yl)oxyphenyl]-1-N′-(4-fluorophenyl)cyclopropane-1,1-dicarboxamide]	100 to 1000 nM	10 to 100 nM	100 to 1000 nM			
O=C(Nc1ccc(F)cc1)C1(C(=O)Nc2ccc(Oc3ncnc4cccnc34)cc2)CC1 [Compound 7, 1-N′-(4-fluorophenyl)-1-N-(4-pyrido[3,2-d]pyrimidin-4-yloxyphenyl)cyclopropane-1,1-dicarboxamide]	> 1000 nM	> 1000 nM	100 to 1000 nM			
Cn1cc(-c2ccc3ncnc(Oc4ccc(NC(=O)C5(C(=O)Nc6ccc(F)cc6)CC5)cc4)c3c2)cn1 [Compound 126, 1-N′-(4-fluorophenyl)-1-N-[4-[6-(1-methylpyrazol-4-yl)quinazolin-4-yl]oxyphenyl]cyclo-propane-1,1-dicarboxamide]				100 to 300 nM	> 300 nM	> 300 nM
COc1cc(NC(=O)C2(C(=O)Nc3ccc(F)cc3)CC2)ccc1Oc1ncnc2cc(OCCCN3CCOCC3)c(OC)nc12 [Compound 74, 1-N-(4-fluorophenyl)-1-N′-[3-methoxy-4-[6-methoxy-7-(3-morpholin-4-ylpropoxy)pyrido[3,2-d]pyrimidin-4-yl]oxyphenyl]cyclopropane-1,1-dicarboxamide]				100 to 300 nM	> 300 nM	10 to 100 nM
COc1cc2nccc(Oc3ccc(NC(=O)C4(C(=O)Nc5ccc(F)cc5)CC4)cc3)c2nc1C(N)=O [Compound 167, 1-N-[4-[(6-carbamoyl-7-methoxy-1,5-naphthyridin-4-yl)oxy]phenyl]-1-N′-(4-fluorophenyl)cyclopropane-1,1-dicarboxamide]				100 to 300 nM	> 300 nM	> 300 nM
COc1cc2nccc(Oc3ccc(NC(=O)C4(C(=O)Nc5ccc(F)cc5)CC4)cc3)c2nc1-c1ccnn1C [Compound 184, 1-N′-(4-fluorophenyl)-1-N-[4-[[7-methoxy-6-(2-methyl-pyrazol-3-yl)-1,5-naphthyridin-4-yl]oxy]phenyl]cyclo-propane-1,1-dicarboxamide]				> 300 nM	> 300 nM	> 300 nM
COc1cc2nccc(Oc3ccc(NC(=O)C4(C(=O)Nc5ccc(F)cc5)CC4)cc3F)c2nc1C#N [Compound 165, 1-N′-[4-[(6-cyano-7-methoxy-1,5-naphthyridin-4-yl)oxy]-3-fluorophenyl]-1-N-(4-fluorophenyl)cyclo-propane-1,1-dicarboxamide]				10 to 100 nM	100 to 300 nM	100 to 300 nM
COCCOc1cc2ncnc(Oc3ccc(NC(=O)C4(C(=O)Nc5ccc(F)cc5)CC4)cc3)c2nc1OC [Compound 78, 1-N′-(4-fluorophenyl)-1-N-[4-[6-methoxy-7-(2-methoxyethoxy)pyrido[3,2-d]pyrimidin-4-yl]oxyphenyl]cyclopropane-1,1-dicarboxamide]				10 to 100 nM	100 to 300 nM	≤ 10 nM
O=C(Nc1ccc(F)cc1)C1(C(=O)Nc2ccc(Oc3ccnc4cc5c(nc34)OCCO5)c(F)c2)CC1 [Compound 158, 1-N′-[4-(2,3-dihydro-[1,4]dioxino[2,3-b][1,5]naphthyridin-6-yloxy)-3-fluorophenyl]-1-N-(4-fluorophenyl)cyclo-propane-1,1-dicarboxamide]				> 300 nM	> 300 nM	> 300 nM
